Test: molar heat capacity at constant pressure
Conditions: 101.33 kPa, Liquid, heat bridge-scanning calorimeter

CCCCn1cc[n+](C)c1.F[P-](F)(F)(F)(F)F [1-butyl-3-methylimidazolium hexafluorophosphate]
Conditions	molar heat capacity at constant pressure [J/K/mol]
394.42 K	465.49
394.55 K	465.77
394.68 K	466.34
394.81 K	467.48
394.94 K	467.48
395.07 K	467.2
395.2 K	466.63
395.32 K	466.63
395.6 K	466.91
395.73 K	466.91
395.86 K	467.2
395.99 K	468.05
396.12 K	468.33
396.24 K	468.33
396.37 K	468.33
396.5 K	468.62
396.63 K	469.47
396.92 K	469.19
397.05 K	468.62
397.18 K	468.9
397.31 K	468.9
397.44 K	469.19
397.56 K	469.19
397.69 K	469.47
397.82 K	469.19
397.95 K	469.19
398.08 K	469.47
398.21 K	469.47
398.49 K	469.19
398.62 K	469.47
398.75 K	470.04
398.88 K	470.32
399.01 K	470.61
399.15 K	470.61
399.28 K	470.89
399.41 K	471.17
399.53 K	472.03
399.82 K	471.17
399.95 K	470.89
400.08 K	470.89
400.21 K	470.61
400.34 K	471.17
400.47 K	471.74
400.6 K	471.74
400.73 K	472.6
400.86 K	472.03
400.99 K	471.74
401.12 K	471.74
401.41 K	472.6
401.54 K	472.31
401.67 K	471.74
401.8 K	472.03
401.93 K	472.03
402.06 K	472.31
402.19 K	472.03
402.32 K	471.46
402.45 K	471.46
402.74 K	471.74
402.87 K	471.46
403 K	471.74
403.13 K	472.03
403.26 K	472.03
403.39 K	472.03
403.52 K	472.03
403.65 K	472.03
403.78 K	472.31
403.91 K	472.31
404.04 K	472.6
404.32 K	472.31
404.45 K	472.31
404.58 K	472.31
404.71 K	473.16
404.84 K	473.73
404.98 K	473.73
405.11 K	473.16
405.24 K	472.88
405.38 K	472.03
405.67 K	472.88
405.8 K	473.73
405.93 K	474.02
406.06 K	474.02
406.2 K	473.73
406.33 K	473.45
406.46 K	472.88
406.59 K	472.88
406.72 K	473.16
406.85 K	473.45
406.98 K	473.73
407.27 K	474.02
407.4 K	473.73
407.53 K	473.45
407.66 K	473.45
407.79 K	473.16
407.92 K	473.16
408.05 K	472.88
408.19 K	473.45

Reference: the NIST ThermoML archive (doi:10.1021/je034102r)
